# Measured values taken from US20150306096A1, “8'-HYDROXY-DIHYDROERGOTAMINE COMPOUNDS AND COMPOSITIONS” (MAP Pharmaceuticals, Inc., priority 2012, published 2015).
# Read-outs that look alike come from different tables or passages of the source.
# How the values were obtained:
# Calcitonin (CGRP) = biological target: T1, Calcitonin (CGRP) (Homo sapiens, UniProt O60894+Q16602); experiment: Aequorin assay; format: cell-based; details: CGRP receptor
# T1 construct: expressed in transfected cells; host or cells: CHO-K1 with apoaequorin (CHO-AEQ)
# T1 sequence (Q16602 23-461): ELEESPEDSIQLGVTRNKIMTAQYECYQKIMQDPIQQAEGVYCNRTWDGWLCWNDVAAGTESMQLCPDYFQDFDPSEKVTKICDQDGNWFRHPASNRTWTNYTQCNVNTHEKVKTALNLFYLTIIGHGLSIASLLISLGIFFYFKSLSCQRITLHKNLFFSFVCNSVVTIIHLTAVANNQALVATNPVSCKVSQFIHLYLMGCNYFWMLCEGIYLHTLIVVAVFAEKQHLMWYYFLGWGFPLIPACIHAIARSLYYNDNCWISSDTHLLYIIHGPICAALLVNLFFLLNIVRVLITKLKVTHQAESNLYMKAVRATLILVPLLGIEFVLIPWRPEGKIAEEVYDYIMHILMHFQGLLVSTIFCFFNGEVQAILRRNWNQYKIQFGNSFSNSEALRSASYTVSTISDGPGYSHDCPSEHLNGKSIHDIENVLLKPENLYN
# T1 sequence (O60894 27-148 partner): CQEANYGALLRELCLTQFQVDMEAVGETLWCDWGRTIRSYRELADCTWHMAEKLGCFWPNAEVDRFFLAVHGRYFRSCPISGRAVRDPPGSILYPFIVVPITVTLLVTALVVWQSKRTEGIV
# Method: (§1) Additional receptor agonist/agonist activity assessments were performed using the 8′-OH DHE test compound. Table 12 contains a summary of the cell lines (CHO-K1/HEK293 transfected with relevant human receptor) and the assays performed to detect any agonist or antagonist activity.
# Aequorin assays were conducted to monitor activity for 8′-OH DHE against the receptors indicated in Table 12 above (except for mGlu3 and mGlu5). CHO-K1 cells co-expressing mitochondrial apoaequorin and the recombinant human receptor of interest were grown to mid-log phase in culture media without antibiotics and then detached with PBS-EDTA, centrifuged and resuspended in assay buffer (DMEMHAM's F12 with HEPES, without phenol red+0.1% BSA, protease free) at a concentration of 1×10^6 cell/mL. Cells were incubated at RT for at least 4 hours with coelenterazine h. […]
# 50 μL of the cell suspension was mixed with 50 μL of test or reference agonist in a 96-well plate. The resulting emission of light was recorded using Hamamatsu Functional Drug Screening System 6000 (FDSS 6000) luminometer. […] The resulting emission of light was recorded using the FDSS 6000 luminometer. To standardize the emission of recorded light (and determine of the ‘100% signal’) across plates and across different experiments, some wells contained 100 μM digitonin or a saturating concentration of ATP (20 μM).
# human 5-HT1D receptor = biological target: T2, human 5-HT1D receptor (Homo sapiens, UniProt P28221); experiment: Radioligand competition binding and kinetics, CHO-K1 membranes
# T2 construct: purchased Euroscreen; host or cells: CHO-K1
# T2 sequence (P28221 whole entry): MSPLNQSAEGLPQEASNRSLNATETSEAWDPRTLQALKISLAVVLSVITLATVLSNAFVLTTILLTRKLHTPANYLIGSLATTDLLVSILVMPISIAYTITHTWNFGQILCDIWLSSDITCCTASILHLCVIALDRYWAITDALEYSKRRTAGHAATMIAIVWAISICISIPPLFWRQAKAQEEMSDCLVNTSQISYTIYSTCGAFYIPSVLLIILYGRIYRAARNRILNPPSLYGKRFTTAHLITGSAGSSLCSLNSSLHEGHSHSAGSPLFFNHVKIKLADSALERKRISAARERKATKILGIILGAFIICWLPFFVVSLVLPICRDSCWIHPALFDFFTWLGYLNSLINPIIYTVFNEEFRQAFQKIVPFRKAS
# Method: For kinetics of radioligand competitive binding, serial dilutions were performed from master solution in 100% DMSO to obtain intermediate concentrations 200-fold higher than the concentrations to be tested. Each test sample was diluted 100-fold in the assay buffer and dispensed into the test plate.
# 5-HT1D Radioligand Binding Assay
# Assay buffer: 50 mM Tris (pH 7.4), 4 mM CaCl2, 0.1% ascorbic acid
# Washing buffer: 50 mM Tris (pH 7.4)
# Membrane: recombinant CHO-K1-5-HT1D membranes thawed on ice and diluted in assay buffer (10 μg/well)
# Ligand: 5-HT (Sigma, H-9523)
# Radioligand: [^3H]-CT (Perkin Elmer, TRK1038, diluted in assay buffer for a final concentration of 0.5 nM) Filter plate: GF/B Unifilter plate (Perkin Elmer, 6005177) presoaked in 0.5% PEI for 2 hours at RT.
# Determination of the Kon constant. Radioligand association kinetics on each receptor were performed by adding in the wells of a 96 well plate 50 μL of radioligand and 50 μL of membrane extracts. The samples were incubated for the times reported in Table 3 below at a temperature optimized for each receptor and filtered over a filter plate. After washing the filters 5 times with 0.5 mL of ice-cold washing buffer, 50 μL of Microscint 20 (Packard) were added to the filters and the plates were incubated 15 min on an orbital shaker and then counted for 1 min/well. This allowed determination of the kobs for each radioligand. Association kinetics were performed at 5 different radioligand concentrations optimized for each receptor (see Table 3 below) to determine 5 different kobs. The different kobs were then plotted against the [radioligand] and the K. was calculated using the following equation: kon=(kobs−koff)[radioligand].
# Determination of the Koff constant. Radioligand dissociation kinetics on each receptor were performed by adding in the wells of a 96 well plate 45 μL of radioligand and 45 μL of membrane extracts. The samples were incubated as reported in Table 4 below at a temperature optimized for each receptor until binding equilibrium was reached as determined by the association kinetics experiment. Then, 100 μL of cold competitor (reference ligand) were added at a 200 fold excess (final concentration) for the times reported in Table 4 at the optimized temperature. The samples were then filtered over a filter plate. After washing the filters 5 times with 0.5 mL of ice-cold washing buffer, 50 μL of Microscint 20 (Packard) were added to the filters and the plates were incubated 15 min on an orbital shaker and then counted for 1 min/well. This allowed determination of the koff for each radioligand.
# Determination of IC50 and Ki constant for each test compound. Radioligand competition binding on each receptor were performed by adding in the wells of a 96 well plate […] of test compound at increasing concentration as reported in Table 5 below, 25 μL of radioligand and 25 μL of membrane extracts. The samples were incubated for 60 min (or 4 hours for a second experiment on 5-HT2B receptors) at a temperature optimized for each receptor and then filtered over a filter plate. After washing the filters 5 times with 0.5 mL of ice-cold washing buffer, 50 μL of Microscint 20 (Packard) were added to the filters and the plates were incubated 15 min on an orbital shaker and then counted for 1 min/well. The test compounds were tested in duplicate at the nanomolar concentrations reported below in Table 5.
# Determination of kon and koff constants for each test compound. Each compound was first assessed in a pilot experiment to evaluate its effect on the kinetic binding of each receptor-radioligand pair. These pilot experiments were performed at on compound concentration and were composed of 10 time-points measurements in duplicate (2, 5, 10, 20, 30, 45, 60, 90, 120 and 150 minutes).
# Somatostatin (SST1~SST5) = experiment: GTPγS assay; format: biochemical, human; details: Somatostatin receptors
# Method: as §1
# Reagents used were the following: Assay buffer (20 mM HEPES, pH 7.4; 100 mM NaCl; 10 mg/mL saponin; 30 mM MgCl2); Membranes (recombinant human receptor membrane extracts were thawed on ice and diluted in assay buffer to give […] (10 μgμL) and kept on ice); GDP (diluted in assay buffer to give 30 μM solution (3 μM final concentration); beads (PVT-WGA (Amersham, RPNQ001), diluted in assay buffer at 25 mg/mL (0.25 mg/10 μL)); GTPγ^35S (Perkin Elmer, NEG030X), diluted in assay buffer to give 0.1 nM (final concentration); and ligand (agonist/antagonist diluted in assay buffer).
# Membranes were mixed with GDP (1:1) and incubated for at least 15 minutes on ice. In parallel, GTPγ^35S was mixed with the beads (1:1) just before starting the reaction. […] The plates were then centrifuged for 10 minutes at 2,000 rpm and incubated at RT for 1 hour and counted for 1 min/well with a Perkin Elmer TopCount reader.
SMILES,Activity (Agonism: EC50; Antagonism: IC50) (Calcitonin (CGRP)),Avg Dissociation half-life (human 5-HT1D receptor; 5-HT1D) [h],Avg Koff (human 5-HT1D receptor; 5-HT1D) [s⁻¹],"IC50 (human 5-HT1D receptor; 5-HT1D, [3H]-CT, read-out: IC50 from binding assay) [nM]",Activity (Agonism: EC50; Antagonism: IC50) (Somatostatin (SST1~SST5)),IC50 (human 5-HT1D receptor) [nM],koff (human 5-HT1D receptor; read-out: Avg Koff) [s⁻¹]
"CN1C[C@H](C(=O)N[C@]2(C)O[C@@]3(O)[C@@H]4CCC(O)N4C(=O)[C@H](Cc4ccccc4)N3C2=O)C[C@@H]2c3cccc4[nH]cc(c34)C[C@H]21 (some centres unmarked) [8′-OH DHE, 8′-Hydroxy-Dihydroergotamine]",Inactive,1.10,0.000175,0.8,Inactive,,
"CN1C[C@H](C(=O)N[C@]2(C)O[C@@]3(O)[C@@H]4CCCN4C(=O)[C@H](Cc4ccccc4)N3C2=O)C[C@@H]2c3cccc4[nH]cc(c34)C[C@H]21 [DHE, Dihydroergotamine]",,1.28,,,,0.65,0.00015
